Assays:
[1] = tested on: MMP-2; assay: Substrate phage display with NGS: relative probability (RP) of P3-P1' tetramer clusters; assay type: biochemical, human; settings: MMP2;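 further: ratio of tetramer probability after protease selection to that in naive phage library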
[2] = biological target: MMP-9 (Homo sapiens, UniProt P14780); assay: K(obs) of individual phage substrates (set of 1369); assay type: biochemical; settings: MMP9
[3] = biological target: T1, MMP-2 (Homo sapiens, UniProt P08253); assay: as above; assay type: biochemical; settings: MMP2
T1 sequence (P08253 110-660): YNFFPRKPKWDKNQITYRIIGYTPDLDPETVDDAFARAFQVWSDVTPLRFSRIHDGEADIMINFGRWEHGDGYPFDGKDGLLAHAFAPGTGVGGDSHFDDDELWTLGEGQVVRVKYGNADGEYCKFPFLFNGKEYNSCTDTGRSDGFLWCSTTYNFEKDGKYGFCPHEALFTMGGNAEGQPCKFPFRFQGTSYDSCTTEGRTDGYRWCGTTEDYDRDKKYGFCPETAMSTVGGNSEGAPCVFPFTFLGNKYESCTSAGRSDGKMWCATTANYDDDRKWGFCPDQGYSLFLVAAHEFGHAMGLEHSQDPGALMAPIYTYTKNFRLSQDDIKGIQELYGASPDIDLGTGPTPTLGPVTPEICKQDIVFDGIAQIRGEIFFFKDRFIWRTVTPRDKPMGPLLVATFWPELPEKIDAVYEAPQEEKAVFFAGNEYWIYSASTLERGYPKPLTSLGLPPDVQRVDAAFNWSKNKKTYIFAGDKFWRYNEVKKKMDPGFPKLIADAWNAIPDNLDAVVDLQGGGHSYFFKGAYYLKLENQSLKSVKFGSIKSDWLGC

[4] = RP of the P3-P1' tetramer contained in the substrate (substrate phage display with NGS)
[5] = individual phage substrates, set of 1369 peptides, hyphen in sequence marks cleavage position
[6] = individual phage substrates, set of 1369 peptides, cleavage position marked by hyphen in sequence
[7] = RP of the P3-P1' tetramer contained in the substrate
[8] = individual phage substrate of the set of 1369 peptides, dash in the sequence marks the cleavage position
[9] = individual phage substrate of the set of 1369 peptides, cleavage position marked by '-'

Sequence of MMP-9 (P14780 94-707): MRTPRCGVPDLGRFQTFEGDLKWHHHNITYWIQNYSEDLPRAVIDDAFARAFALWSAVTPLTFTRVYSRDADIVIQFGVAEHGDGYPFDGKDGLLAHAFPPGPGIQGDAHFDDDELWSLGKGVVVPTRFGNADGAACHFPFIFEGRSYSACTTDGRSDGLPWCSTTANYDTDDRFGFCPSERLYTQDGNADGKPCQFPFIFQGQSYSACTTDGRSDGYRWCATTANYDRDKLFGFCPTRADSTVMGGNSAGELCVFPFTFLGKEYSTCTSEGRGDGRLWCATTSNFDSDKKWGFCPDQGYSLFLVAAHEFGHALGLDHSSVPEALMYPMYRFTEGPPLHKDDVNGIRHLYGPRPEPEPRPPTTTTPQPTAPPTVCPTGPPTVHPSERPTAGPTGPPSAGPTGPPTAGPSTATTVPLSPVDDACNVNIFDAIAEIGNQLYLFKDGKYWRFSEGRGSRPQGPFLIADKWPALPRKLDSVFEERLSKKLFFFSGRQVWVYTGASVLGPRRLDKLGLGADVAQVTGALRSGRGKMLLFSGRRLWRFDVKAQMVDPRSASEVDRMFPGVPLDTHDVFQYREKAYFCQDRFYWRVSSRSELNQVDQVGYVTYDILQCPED

NMWAH-LTASG
relative probability (RP) [1, 4]: 7.453 | Kobs [2, 5]: 323.705 M⁻¹ s⁻¹ | Kobs [3, 6]: 3079.62 M⁻¹ s⁻¹

NRFSN-LTASG
relative probability (RP) [1, 4]: 24 | Kobs [2, 5]: 0 M⁻¹ s⁻¹ | Kobs [3, 6]: 8941.32 M⁻¹ s⁻¹

NRLSH-WTASG
relative probability (RP) [1, 4]: 23.1226 | Kobs [2, 5]: 912.511 M⁻¹ s⁻¹ | Kobs [3, 6]: 12792.1 M⁻¹ s⁻¹

NRPAS-WTASG
relative probability (RP) [1, 4]: 32.4643 | Kobs [2, 5]: 3253.29 M⁻¹ s⁻¹ | Kobs [3, 6]: 12792.1 M⁻¹ s⁻¹

NRVEM-LTASG
relative probability (RP) [1, 7]: 2.124 | Kobs [2, 8]: 0 M⁻¹ s⁻¹ | Kobs [3, 9]: 261.974 M⁻¹ s⁻¹

NSPLS-YTASG
relative probability (RP) [1, 7]: 31.2477 | Kobs [2, 8]: 12792.1 M⁻¹ s⁻¹ | Kobs [3, 9]: 8321.48 M⁻¹ s⁻¹

NTPNW-LTASG
relative probability (RP) [1, 4]: 26.5667 | Kobs [2, 5]: 6131.32 M⁻¹ s⁻¹ | Kobs [3, 6]: 10866.7 M⁻¹ s⁻¹

NTSAW-LTASG
relative probability (RP) [1, 4]: 18.9346 | Kobs [2, 5]: 386.839 M⁻¹ s⁻¹ | Kobs [3, 6]: 6688.74 M⁻¹ s⁻¹

NVPVW-MTASG
relative probability (RP) [1, 7]: 25.8126 | Kobs [2, 8]: 5461.43 M⁻¹ s⁻¹ | Kobs [3, 9]: 5461.43 M⁻¹ s⁻¹

PAYFP-LTASG
relative probability (RP) [1, 7]: 0.1432 | Kobs [2, 8]: 0 M⁻¹ s⁻¹ | Kobs [3, 9]: 0 M⁻¹ s⁻¹

PCHLA-LTASG
relative probability (RP) [1, 7]: 11.3603 | Kobs [2, 8]: 619.843 M⁻¹ s⁻¹ | Kobs [3, 9]: 1327.88 M⁻¹ s⁻¹

PGPES-LTASG
relative probability (RP) [1, 4]: 26.0767 | Kobs [2, 5]: 12792.1 M⁻¹ s⁻¹ | Kobs [3, 6]: 10866.7 M⁻¹ s⁻¹

PHTAS-LTASG
relative probability (RP) [1, 7]: 17.8872 | Kobs [2, 8]: 0 M⁻¹ s⁻¹ | Kobs [3, 9]: 12792.1 M⁻¹ s⁻¹

PIALH-WTASG
relative probability (RP) [1, 4]: 5.12 | Kobs [2, 5]: 12792.1 M⁻¹ s⁻¹ | Kobs [3, 6]: 12792.1 M⁻¹ s⁻¹

PKFSH-MTASG
relative probability (RP) [1, 4]: 11.0227 | Kobs [2, 5]: 0 M⁻¹ s⁻¹ | Kobs [3, 6]: 1030.73 M⁻¹ s⁻¹

PKGYA-LTASG
relative probability (RP) [1, 7]: 0.5867 | Kobs [2, 8]: 3850.82 M⁻¹ s⁻¹ | Kobs [3, 9]: 2615.58 M⁻¹ s⁻¹

PKMSH-LTASG
relative probability (RP) [1, 7]: 24.6165 | Kobs [2, 8]: 0 M⁻¹ s⁻¹ | Kobs [3, 9]: 2409.72 M⁻¹ s⁻¹

PKWHG-LTASG
relative probability (RP) [1, 7]: 0.5588 | Kobs [2, 8]: 619.843 M⁻¹ s⁻¹ | Kobs [3, 9]: 355.093 M⁻¹ s⁻¹

PMVRW-LTASG
relative probability (RP) [1, 4]: 25.891 | Kobs [2, 5]: 12792.1 M⁻¹ s⁻¹ | Kobs [3, 6]: 12792.1 M⁻¹ s⁻¹

PQVWY-LTASG
relative probability (RP) [1, 4]: 3.667 | Kobs [2, 5]: 5889.62 M⁻¹ s⁻¹ | Kobs [3, 6]: 4205.91 M⁻¹ s⁻¹

PRLTH-LTASG
relative probability (RP) [1, 4]: 4.299 | Kobs [2, 5]: 27.918 M⁻¹ s⁻¹ | Kobs [3, 6]: 1610.61 M⁻¹ s⁻¹

PRVEA-LTASG
relative probability (RP) [1, 7]: 10.756 | Kobs [2, 8]: 231.616 M⁻¹ s⁻¹ | Kobs [3, 9]: 4205.91 M⁻¹ s⁻¹

PRVHH-LTASG
relative probability (RP) [1, 7]: 14.1228 | Kobs [2, 8]: 2615.58 M⁻¹ s⁻¹ | Kobs [3, 9]: 6396.07 M⁻¹ s⁻¹

PRVML-LTASG
relative probability (RP) [1, 4]: 0.4692 | Kobs [2, 5]: 1112.44 M⁻¹ s⁻¹ | Kobs [3, 6]: 142.481 M⁻¹ s⁻¹

PRVWL-LTASG
relative probability (RP) [1, 4]: 0.5351 | Kobs [2, 5]: 2687.73 M⁻¹ s⁻¹ | Kobs [3, 6]: 3165.09 M⁻¹ s⁻¹

PSWRA-LTASG
relative probability (RP) [1, 7]: 22.4074 | Kobs [2, 8]: 4470.66 M⁻¹ s⁻¹ | Kobs [3, 9]: 10866.7 M⁻¹ s⁻¹

PTFAH-LTASG
relative probability (RP) [1, 7]: 19.6504 | Kobs [2, 8]: 585.336 M⁻¹ s⁻¹ | Kobs [3, 9]: 9740.44 M⁻¹ s⁻¹

PVFQS-LTASG
relative probability (RP) [1, 4]: 13.5551 | Kobs [2, 5]: 142.481 M⁻¹ s⁻¹ | Kobs [3, 6]: 4922.1 M⁻¹ s⁻¹

PYPVP-FTASG
relative probability (RP) [1, 7]: 31.1155 | Kobs [2, 8]: 12792.1 M⁻¹ s⁻¹ | Kobs [3, 9]: 12792.1 M⁻¹ s⁻¹

QAPMG-LTASG
relative probability (RP) [1, 7]: 34.7865 | Kobs [2, 8]: 9740.44 M⁻¹ s⁻¹ | Kobs [3, 9]: 3438.54 M⁻¹ s⁻¹

QEPRN-ITASG
relative probability (RP) [1, 7]: 31.9621 | Kobs [2, 8]: 12792.1 M⁻¹ s⁻¹ | Kobs [3, 9]: 12792.1 M⁻¹ s⁻¹

QGPWH-ITASG
relative probability (RP) [1, 7]: 10.946 | Kobs [2, 8]: 12792.1 M⁻¹ s⁻¹ | Kobs [3, 9]: 4205.91 M⁻¹ s⁻¹

QHWGG-LTASG
relative probability (RP) [1, 4]: 21.3794 | Kobs [2, 5]: 386.839 M⁻¹ s⁻¹ | Kobs [3, 6]: 12792.1 M⁻¹ s⁻¹

QKVLN-MTASG
relative probability (RP) [1, 4]: 19.025 | Kobs [2, 5]: 5269.78 M⁻¹ s⁻¹ | Kobs [3, 6]: 2476.66 M⁻¹ s⁻¹

QPLSW-VTASG
relative probability (RP) [1, 7]: 11.7463 | Kobs [2, 8]: 4922.1 M⁻¹ s⁻¹ | Kobs [3, 9]: 12792.1 M⁻¹ s⁻¹

QRMAS-LTASG
relative probability (RP) [1, 4]: 31.6834 | Kobs [2, 5]: 551.253 M⁻¹ s⁻¹ | Kobs [3, 6]: 10866.7 M⁻¹ s⁻¹

QRPAQ-LTASG
relative probability (RP) [1, 4]: 32.8467 | Kobs [2, 5]: 12792.1 M⁻¹ s⁻¹ | Kobs [3, 6]: 12792.1 M⁻¹ s⁻¹

QSPRM-LTASG
relative probability (RP) [1, 7]: 30.5973 | Kobs [2, 8]: 10866.7 M⁻¹ s⁻¹ | Kobs [3, 9]: 10866.7 M⁻¹ s⁻¹

QSWYG-MTASG
relative probability (RP) [1, 4]: 0.05309 | Kobs [2, 5]: 3741.87 M⁻¹ s⁻¹ | Kobs [3, 6]: 1112.44 M⁻¹ s⁻¹

QVSWA-WTASG
relative probability (RP) [1, 4]: 0.05632 | Kobs [2, 5]: 231.616 M⁻¹ s⁻¹ | Kobs [3, 6]: 0 M⁻¹ s⁻¹

RAPAS-LTASG
relative probability (RP) [1, 7]: 36.4285 | Kobs [2, 8]: 12792.1 M⁻¹ s⁻¹ | Kobs [3, 9]: 12792.1 M⁻¹ s⁻¹

RAPLH-MTASG
relative probability (RP) [1, 7]: 30.0095 | Kobs [2, 8]: 12792.1 M⁻¹ s⁻¹ | Kobs [3, 9]: 2916.17 M⁻¹ s⁻¹

RAPSM-LTASG
relative probability (RP) [1, 4]: 33.0235 | Kobs [2, 5]: 7815.03 M⁻¹ s⁻¹ | Kobs [3, 6]: 5889.62 M⁻¹ s⁻¹

RDLSH-LTASG
relative probability (RP) [1, 4]: 29.8814 | Kobs [2, 5]: 261.974 M⁻¹ s⁻¹ | Kobs [3, 6]: 9740.44 M⁻¹ s⁻¹
